Test results as given in article PMC6235670, “An mTOR Signaling Modulator Suppressed Heterotopic Ossification of Fibrodysplasia Ossificans Progressiva” (Stem Cell Reports, 2018).

Experiments:
C57BL/6 mice = assay: Growth plate histology and normal bone µCT in compound-administered BMP-7-injected mice; conditions: 5 mg/kg i.p., 2 weeks
Method: (§1) MTOR s604 […]tt […]at […]
System Engineering) according to the manufacturer's instructions. […]
(§2) BMP-7-induced HO model mice. BMP -7 (2 µ g/mouse) was injected into the right gastrocnemius muscle of C57BL/6NJcl mice (6-8 weeks, male, CLEA Japan), and compounds were administered once a day, five times a week (intraperitoneal administration). Mice were analyzed 2 weeks after injection. […]
Histological analysis of growth plates chondrocytes. Knee joints were obtained from BMP-7-injected and test compounds-administrated C57BL/6NJcl mice after 2 weeks treatment and fixed, paraffin-embedded, and sectioned and stained with Safranin O. The thickness of the proliferative and hypertrophic zones of the growth plate were measured using ImageJ software on images obtained using a Keyence microscope (Keyence A merica). The proliferative zone was defined as the region with flat chondrocytes stacked in longitudinal columns, and the hypertrophic zone as the region where chondrocytes are enlarged in size and form clusters.
Normal bone µCT. The left legs of mice were obtained from BMP -7-injected and test -compounds administrated C57BL/6NJcl mice after 2 weeks treatment. The region of interest (ROI) included the femur- tibia (entire femur in addition to the part of tibia above tibia/fibular junction). […]
Tests of side effects of direct and indirect mTOR inhibitors. Related

mTOR signaling (p-S6) [1] = assay: p-S6 western blotting in FOP-iMSCs cultured with 10% FBS; assay type: cell-based, human; conditions: 100 nM, 2 hr
Method: time point t = 24 h from t = 0 h, and relative cell migration was expressed as the ratio of the absolute cell migrations between the experimental and control groups by using CL-Quant software (Nikon Corp.).
Quantitative PCR analysis. Total RNA was purified with RNeasy Kit (Qiagen) and treated with DNase -one Kit (Qiagen) to remove genomic DNA. Total RNA (0.3 µg) was reverse transcribed for single-stranded cDNA using random primers and Superscript III reverse transcriptase (Thermo Fisher Scientific) according to the manufacturer’s instructions. Quantitative PCR was performed with Thunderbird SYBR qPCR Mix (TOYOBO) and analyzed with the StepOne real-time PCR system (Applied Biosystems). […]
Microarray experiments. 2D chondrogenic induction was performed in FOP-iMSCs stimulated with or without 100 ng/mL Activin-A, TAK 165, CP-724714 and Lapatinib. […] Raw CEL files were imported into GeneSpring GX 12.6.1 software (Agilent Technologies), and expression values were calculated with the RMA16 algorithm. […]
Protein bands were detected with ECL Prime Western Blotting Detection Reagent (GE Healthcare) and visualized using BIO-RAD Molecular Imager® Chemi-DocTM XRS+ with Image LabTM software (Bio-Rad). […]
GAG value. The GAG content was quantified in pellets with the Blyscan Glycosaminoglycan Assay Kit (Biocolor). The DNA content was quantified using PicoGreen dsDNA Quantitation Kit (Thermo Fisher […]

[2] = test system: healthy control iPSC (414C2)-derived iMSCs; assay: Wound healing assay; conditions: 10 nM rapamycin or 1 µM TAK165, 24 h
ATDC5/FOP-ACVR1 cells = assay: ALP assay (HTS and dose-response) in ATDC5/FOP-ACVR1; assay type: cell-based, mouse; conditions: Mus musculus, 72 h, read-out: IC50 (ALP assay)
Method: ATDC5/FOP-ACVR1 cells were plated in 96-well white plates (2,000 cells/well/40 μL, Corning) in DMEM/F-12 supplemented with 5% (v/v) FBS. Two hours after incubation at 37°C under 5% CO2, 10 μL of test compounds (final 1 μM) was added, and the assay plates were incubated at 37°C under 5% CO2. After 3 days of incubation, ALP activity was measured using an Amplite Colorimetric Alkaline Phosphatase Assay Kit (AAT Bioquest) according to the manufacturer's protocol.
Generation of ATDC5 stably expressing ACVR1. WT - or FOP-ACVR1 was inserted into doxycycline (Dox)- […]
(KW111/WT-ACVR1 or KW111/FOP-ACVR1). KW111/WT-ACVR1 or KW111/FOP-ACVR1 and PBaseII […]
FuGeneHD® (Promega) according to the manufacturer’s protocol, and the neomycin- resistant population (500 µg/mL) was selected. […]
HTS campaign and follow-up screens. […] After 3 days incubation, Alkaline Phosphatase activity (ALP) or AlamarBlue activity was measured using Amplite™ Colorimetric Alkaline Phosphatase Assay Kit (AAT Bioquest) or alamarBlue® Cell Viability Reagent (Thermo Fisher Scientific) according to the manufacturer’s protocol, respectively. […]
was measured on POWERSCAN4 (DS Pharma Biomedical) or EnVision® Multilabel Reader (PerkinElmer).
Inhibitory effects of the screened compounds are given as percent inhibition, which was calculated using the following equation: (1-([Abs of compound] - [Abs of Min])/([Abs of Max] - [Abs of Min]))× 100, where [Abs of Max] and [Abs of Min] are the mean Abs of DMSO control and 1 µM DMH-1, respectively. The Z’ factor, which is widely used as a measure of the assay quality of each plate, was calculated using the following equation: Z’ factor = 1 - 3 × ([SD of Max] + [SD of Min])/([Abs of Max] - [Abs of Min]) (SI Appendix, Fig.
The S/B (signal-to-background) ratio was calculated using the following equation: ([Abs of Max]/[Abs of Min]) (SI Appendix, Fig. S3B). […]

[3] = test system: BMP-7-induced HO model mice (C57BL/6); assay: BMP-7-induced HO model mice
Excerpt: as §1
(§3) For X- ray images, mice were anesthetized with isoflurane (5% for induction, 2-3% for maintenance, Abbvie), immobilized and X-rayed using µFX-1000 (Fujifilm) or DX-50 (Faxitron Bioptics). µCT images were scanned using X-ray CT systems (inspeXio SMX-100CT, Shimadzu) and analyzed with TRI/3D-BON software (Ratoc System Engineering) according to the manufacturer's instructions. Four weeks after injection, the injected sites were harvested, fixed with 4% paraformaldehyde for 24 h, embedded in paraffin, and sectioned and stained […]
as §2

BMP type I receptors = test system: BMP type I receptors; design: method as in Lewis and Prywes, 2013; conditions: ref Lewis and Prywes, 2013; cited from earlier work
mTOR signaling (p-S6) [4] = assay: p-S6 western blotting during chondrogenic induction of FOP-iMSCs with activin A; assay type: cell-based, human; conditions: 1 µM
Method: Western blotting. SDS- PAGE and blotting with whole-cell lysates were performed by standard procedures.
Protein bands were detected with ECL Prime Western Blotting Detection Reagent (GE Healthcare) and visualized using BIO-RAD Molecular Imager® Chemi-DocTM XRS+ with Image LabTM software (Bio-Rad).
All data (relative intensity) were corrected by β-actin.
Antibodies for western blotting and immunostaining.
N ame Company Cat. No Concentration
Human Activin RIA/ALK-2 Antibody R&D Systems) AF637 1:100
Anti-human Vimentin antibody Abcam ab16700 1:40
Collagen I Antibody Novus NB600- 1:100
Anti-rabbit IgG, HRP-linked Antibody Cell Signaling #7074 1:10000 […]
2nd Goat anti-Rabbit IgG (H+L) Secondary Antibody, Invitrogen A-11008 1:100 antibody Alexa Fluor® 488 conjugate
Goat anti-Rabbit IgG (H+L) Secondary Antibody, Invitrogen A-21428 1:500

[5] = test system: TGF-β signaling (CAGA-Luc); assay: CAGA-Luc reporter assay in FOP-iMSCs; assay type: cell-based, human; conditions: activin A and compounds for 3 hr
Method: (§4) FOP-iMSCs transiently transfected with BRE-Luc (A) or CAGA-Luc (B) with CMV-Renilla were stimulated with activin A and compounds for 16 hr (A) or 3 hr (B). […] One day after siRNA transfection, chondrogenic induction with activin A was initiated, and after 7 days the cells were harvested. […] FOP-iMSCs cultured with 10% FBS were treated with 100 nM rapamycin (Rapa) or TAK 165 (TAK) for 2 hr, and the cells were harvested. […] 1 μM TAK, 1 μM CP (CP-724714, another selective ERBB2 inhibitor), or 10 nM Rapa were applied in the experiments.

FOP-iMSCs = assay: 2D chondrogenic induction of FOP-iMSCs with activin A (GAG, Alcian blue); assay type: cell-based, human; conditions: activin A, 7 days
BMP signaling (BRE-Luc) = assay: BRE-Luc reporter assay in FOP-iMSCs; assay type: cell-based, human; conditions: activin A and compounds for 16 hr
Method: as §4

[6] = test system: NOD/SCID mice transplanted with FOP-iMSCs
Excerpt: as §1
as §3, with “instructions.” for “instructions. Four weeks after injection, the injected sites were harvested, fixed with 4% paraformaldehyde for 24 h, embedded in paraffin, and sectioned and stained”
Activin-A-induced HO model transplanted with FOP-iMSCs. FOP- (right leg) and resFOP-iMSCs (left leg) (4 x 10^6 cells, respectively) were transplanted into the gastrocnemius muscle of NOD/ShiJic-scid Jcl (NOD/SCID) mice (8 weeks, male, CLEA Japan) with C3H -DoxOn-hINHBA (5 x 10^5 cells), which can continuously expose Activin-A to the transplanted iMSCs in vivo ( Hino et al., 2015) . In the Dox-induced group, 1 mg/mL Dox (Sigma-Aldrich) was administered via drinking water with 10 mg/mL sucrose (Nacalai Tesque) for two weeks after transplantation. Compounds were intraperitoneally administered once a day, five times a week. Eight weeks after transplantation, the transplanted cells were harvested , fixed with 4% paraformaldehyde for 24 h, embedded in paraffin, and sectioned and stained with HE, von Kossa, Safranin O, human specific anti-Vimentin antibody and Collagen I antibody as previously described (Hino et al., 2015; Umeda et al., 2012; […]

Row | SMILES | Bone Mineral Density (normal bone µCT) vs vehicle (C57BL/6 mice) | Bone volume (normal bone µCT, femur-tibia) vs vehicle (C57BL/6 mice) | Hypertrophic zone thickness of growth plate vs vehicle (C57BL/6 mice) | Proliferative zone thickness of growth plate vs vehicle (C57BL/6 mice) | p-S6 levels (direct mTOR inhibition) (mTOR signaling (p-S6) [1]) | Relative cell migration (wound healing assay) vs DMSO [2] | IC50 (ATDC5/FOP-ACVR1 cells) [nM] | body weight change compared to vehicle group ([3]; i.p. for 2 weeks, n=5) | BMP-7-induced HO (heterotopic bone volume) ([3]; i.p. once daily 5 times a week for 2 weeks) | # of HO (> 20 mm3): number of mice harboring HO ([3]; i.p. once daily 5 times a week for 2 weeks, N = 5) | inhibition of BMP type I receptors (BMP type I receptors) | p-S6 levels from 2 hr after treatment (mTOR signaling (p-S6) [4]) | CAGA-Luc (TGF-β-responsive luciferase reporter) [5] | inhibition of glycosaminoglycan (GAG) production (FOP-iMSCs; 1 μM) | suppression of chondrogenic induction (GAG), dose dependence (FOP-iMSCs) | BRE-Luc (BMP-specific luciferase reporter) (BMP signaling (BRE-Luc)) | body weight change compared with vehicle group ([6]; 5 mg/kg i.p.) | hypertrophic chondrocytes and von Kossa- and COL1-positive bone regions ([6]; 5 mg/kg i.p.) | HO derived from FOP-iMSCs (heterotopic bone volume) ([6]; 5 mg/kg i.p. once daily, five times a week, 8 weeks after transplantation)
1 | CO[C@H]1C[C@@H]2CC[C@@H](C)[C@@](O)(O2)C(=O)C(=O)N2CCCC[C@H]2C(=O)O[C@H]([C@H](C)C[C@@H]2CC[C@@H](O)[C@H](OC)C2)CC(=O)[C@H](C)/C=C(\C)[C@@H](O)[C@@H](OC)C(=O)[C@H](C)C[C@H](C)/C=C/C=C/C=C/1C [rapamycin] | n.s. | n.s. | n.s. | n.s. | decreased | n.s. |  |  |  |  |  |  |  |  |  |  |  |  | 
2 | CN1CCN(CCOc2cc(OC3CCOCC3)c3c(Nc4c(Cl)ccc5c4OCO5)ncnc3c2)CC1 [AZD0530, saracatinib] |  |  |  |  |  |  | 4 | No significant differences | suppressed | 1/5 | inhibited | significantly inhibited | inhibited | potent inhibition | dose-dependent | inhibited | No significant differences | fewer | significantly suppressed
